Data reported in patent publication US20160367515A1, “Improved delivery of poorly water soluble drugs with aphafetoprotein stabilized with metal ions” (Oy Safemed Ltd., priority 2013, published 2016).

Columns and labels:
[1] = system: mammary carcinoma cell line MCF-7; assay: MTS cell viability assay, mammary carcinoma MCF-7 cells; assay type: cell-based, human
Description: Effect of binding of Zn ions to rhAFP and sugar-free rhAFPo species was tested by measuring of their dose-dependent tumor-suppressive effect for mammary carcinoma cell line MCF-7 in vitro, as it was earlier described for natural embryonic eAFP (Dudich et al., Eur. J. Biochem. 1999; 266: 750-761). MCF-7 cells were incubated with various doses of rhAFP (rhAFPo), Zn-rhAFP (Zn-rhAFPo) or with natural embryonic eAFP for 48 h, and thereafter their viability was assessed by the colorimetric MTS assay (FIG. 1A).
Cell viability was assessed by the Promega CellTiter 96 AQueous Non-Radioactive Cell Proliferation MTS assay (Promega, USA) according to manufacturer's instructions. Cells were incubated with various AFP samples for 48 h as described above, followed by incubation with MTS-test reagents and measuring of the light adsorption of the formasan, appeared in the lysed cell supernatants at 492 nm by using VICTOR-1420 multilabel counter (Wallac, Finland). Intact cell cultures incubated without additions were taken as a control. By such a way the quantity of viable cells capable to internalize MTS dye was determined. Results were expressed as the mean optical density (OD)±the standard error of the mean triplicate cultures. The extent of cell viability was calculated as an average OD in experimental wells after addition of testing compounds in relation to untreated control wells, that was taken as 100%
To evaluate the efficacy of preparations rhAFP/Ptx and Zn-rhAFP/Ptx we compared the cytotoxic effect of Ptx alone or that in combination with rhAFP or Zn-rhAFP for taxol-resistant human hepatoma HepG2 cells, human breast carcinoma cells MCF-7, and rat glioma C6 cell lines in vitro. RhAFP or Zn-rhAFP were incubated with various doses of Ptx at 37° C. for 1 h to allow complex formation with molecular ratios rhAFP:Ptx 1:1; 1:3 or 1:5 and thereafter the mixtures were introduced into the cell culture for 48 hrs. Cytotoxicity was measured by MTS assay.
Various doses of rhAFP/Ptx complexes were tested for their effectiveness for inhibition of human mammary carcinoma MCF-7, human hepatoma HepG2, and rat glioma C6 tumor cell growth in vitro. First, we optimized drug concentration and rhAFP amount to the extent that it would not generate an extensive cytotoxic effect alone. Then, the cells were seeded in 96-well plates at a density of 3×10^3/well in 100 μl of medium for 24 hrs to allow adherence. The next day, rhAFP or Zn-rhAFP combined with Ptx at the molecular ratios of 1:1; 1:3 or 1:5 were added into the each well. After 48 h of incubation MTS assays were performed to determine survival rate of the cells. All the experiments were repeated at least three times. The results were expressed as mean±standard error (SE).
The coefficient of drug interaction (CDI) was calculated to analyze the effects of rhAFP and Ptx combinations. CDI was calculated by the equation: CDI=SRAFP/drug[…]/SRAFP×SRdrug, where SRAFP/drug is the average survival rate of combination group, and SRAFP or SRdrug are the average survival rates of the single agent groups. According to our evaluation, CDI values <1, =1 or >1 indicate that the combinations are synergistic, additive or antagonistic respectively.
The values of Zn-rhAFP/Ptx or rhAFP/Ptx complex concentration, which inhibited the cell viability by 50% (IC50) when compared to untreated control, were calculated according to the Hill's equation (sigmoid model of concentration-response curve) from the curves of dependence of the relative percentage of viable cells from AFP concentration expressed as mean values from three independent experiments±SD.
In order to confirm the hypothesis that the combination of Zn-rhAFP and various low water-soluble chemotherapeutic agents would reveal increased anti-tumor efficacy, different cytotoxic compounds were tested in combination with Zn-rhAFP for their cell-killing effect in MCF-7 cells in vitro. […]

rat glioma C6 = assay: MTS cell viability assay, rat glioma C6 cells; assay type: cell-based; conditions: C6, 48 h, compositions of paclitaxel with rhAFP or Zn-rhAFP
Description: Tumor cell lines: human mammary carcinoma MCF-7, human hepatoma HepG2, and rat glioma C6—were originated from the American Type Culture Collection (ATCC). All cell lines were maintained in the complete DMEM or RPMI-1640 media supplemented with L-glutamine and 10% fetal calf serum (FCS) in humidified 5% CO2 atmosphere. For a passage, adherent cells were incubated in the EDTA/0.25% trypsin solution, then washed and plated out for experiments. Prior to addition of reagents, cells were washed with the fresh media with 2% FCS, plated onto 96-well polystyrene plates (Costar, USA) at a density of 3×10^3 cell/well in 180 μL of complete medium with 2% FCS and incubated for 2 h. […] Cell proliferation was assessed by [^3H]-thymidine (^3H-TdR) incorporation assay. […] Cells were harvested and the ^3H-TdR incorporation was measured by using the liquid scintillation counter LKB 1209 Rackbeta (LKB, Sweden). Results were expressed as mean counts per minute (cpm)±standard error of the mean of triplicate cultures or as a percentage of ^3H-TdR incorporation in the experimental cell cultures relatively to the untreated control, as described (Semenkova et al., Tumour Biol. 1997; 18: 261-74).
Cell viability was assessed by the Promega CellTiter 96 AQueous Non-Radioactive Cell Proliferation MTS assay (Promega, USA) according to manufacturer's instructions. […]

IC50 ([1]; Homo sapiens, MCF7, MCF-7, 48 h, compositions of paclitaxel with rhAFP or Zn-rhAFP, mean of three experiments, read-out: IC50): > 10000 nM
IC50 (rat glioma C6): 2500 nM
SMILES: CC(=O)O[C@H]1C(=O)[C@@]2(C)[C@H]([C@H](OC(=O)c3ccccc3)[C@]3(O)C[C@H](OC(=O)[C@H](O)[C@@H](NC(=O)c4ccccc4)c4ccccc4)C(C)=C1C3(C)C)[C@]1(OC(C)=O)CO[C@@H]1C[C@@H]2O [Ptx, paclitaxel]
Coefficient for drug interaction (CDI) ([1]; MCF7 + Zn-rhAFP 1.4 μM (Zn:rhAFP 4:1) + drug, 48 h): 0.80
